Data reported in article PMC10752118 (Therapeutic Advances in Medical Oncology, 2023).

Columns and labels:
[1] = system: P-glycoprotein (P-gp) multidrug transporter; conditions: cited from earlier work
[2] = Plasma PK, noncompartmental analysis; assay type: in vivo, human; conditions: for observed clearance (CL), dose dependence: 1 h IV infusion
[3] = system: treatment refractory HER2 over-expressing breast cancer; conditions: in combination with weekly trastuzumab and paclitaxel, nine patients; cited from earlier work
[4] = system: uridine diphosphate-glucoronosyltransferases; conditions: cited from earlier work
[5] = prior single-agent study; cited from earlier work
HSP90 = conditions: read-out: dissociation constant (Kd); cited from earlier work
[6] = cited from earlier work
[7] = system: patients with advanced TNBC; experiment: Phase Ib 3 + 3 dose escalation: DLT assessment, MTD and RP2D; assay type: in vivo, human
[8] = Day 1 (no onalespib), 80 mg/m^2 paclitaxel IV, DL1, geometric mean ± SD
[9] = Day 1 (no onalespib), 80 mg/m^2 paclitaxel IV, DL2, geometric mean ± SD
[10] = Day 1 (no onalespib), 80 mg/m^2 paclitaxel IV, DL3, geometric mean ± SD
[11] = Day 1 (no onalespib), 80 mg/m^2 paclitaxel IV, DL4, geometric mean ± SD
[12] = Day 7 (no paclitaxel), DL1, onalespib 120 mg/m^2 IV, geometric mean ± SD
[13] = Day 7 (no paclitaxel), DL2, onalespib 150 mg/m^2 IV, geometric mean ± SD
[14] = Day 7 (no paclitaxel), DL3, onalespib 200 mg/m^2 IV, geometric mean ± SD
[15] = Day 7 (no paclitaxel), DL4, onalespib 260 mg/m^2 IV, geometric mean ± SD
[16] = Day 8 (with 80 mg/m^2 paclitaxel), DL1, onalespib 120 mg/m^2 IV, geometric mean ± SD
[17] = Day 8 (with 80 mg/m^2 paclitaxel), DL2, onalespib 150 mg/m^2 IV, geometric mean ± SD
[18] = Day 8 (with 80 mg/m^2 paclitaxel), DL3, onalespib 200 mg/m^2 IV, geometric mean ± SD
[19] = Day 8 (with 80 mg/m^2 paclitaxel), DL4, onalespib 260 mg/m^2 IV, geometric mean ± SD

CC(=O)O[C@H]1C(=O)[C@@]2(C)[C@H]([C@H](OC(=O)c3ccccc3)[C@]3(O)C[C@H](OC(=O)[C@H](O)[C@@H](NC(=O)c4ccccc4)c4ccccc4)C(C)=C1C3(C)C)[C@]1(OC(C)=O)CO[C@@H]1C[C@@H]2O [paclitaxel]
interaction with P-gp [1]: substrate for MDR1 P-gp
observed clearance (CL), dose dependence [2]: independent of dose
CL [2, 8]: 12.6 ± 2.63 L/h/m^2
Vz [2, 8]: 279 ± 41.9 L/m^2
AUCinf [2, 9]: 5.59 ± 0.185 µM·h
CL [2, 9]: 16.8 ± 0.535 L/h/m^2
Cmax [2, 9]: 4.17 ± 0.299 µM
Vz [2, 9]: 216 ± 19.3 L/m^2
CL [2, 10]: 15.3 ± 4.77 L/h/m^2
Cmax [2, 10]: 4.45 ± 2.28 µM
Vz [2, 10]: 206 ± 89.8 L/m^2
CL [2, 11]: 11.9 ± 2.78 L/h/m^2
Cmax [2, 11]: 4.68 ± 1.82 µM
Vz [2, 11]: 181 ± 46.0 L/m^2
t1/2 ([2]; Day 8, 80 mg/m^2 paclitaxel IV with onalespib 120 mg/m^2, DL1, median (range)): 15.0 (13.1–15.4) h
AUC(0-inf) ([2]; human, plasma, intravenous, 80 mg/m^2, Mean AUCinf, range across DLs, single agent, cycle 1, day 1, 80 mg/m^2): 5.59 to 7.75 µM·h
Cmax ([2]; human, plasma, intravenous, 80 mg/m^2, Mean Cmax, range across DLs, single agent, cycle 1, day 1, 80 mg/m^2): 3.87 to 4.68 µM
AUC(0-inf) ([2]; human, plasma, intravenous, mean AUCinf, range across all four DLs, cycle 1, day 8, 80 mg/m^2 in combination with onalespib): 6.5 to 8.72 µM·h
Cmax ([2]; human, plasma, intravenous, mean Cmax, range across all four DLs, cycle 1, day 8, 80 mg/m^2 in combination with onalespib): 2.99 to 4.23 µM
AUC(0-inf) ([2]; human, plasma, iv, 80 mg/m2, AUCinf, Day 1 (no onalespib), 80 mg/m^2 paclitaxel IV, DL1, geometric mean ± SD): 7.44 ± 1.54 µM·h
AUC(0-inf) ([2]; human, plasma, iv, 80 mg/m2, AUCinf, Day 1 (no onalespib), 80 mg/m^2 paclitaxel IV, DL3, geometric mean ± SD): 6.1 ± 2.24 µM·h
AUC(0-inf) ([2]; human, plasma, iv, 80 mg/m2, AUCinf, Day 1 (no onalespib), 80 mg/m^2 paclitaxel IV, DL4, geometric mean ± SD): 7.75 ± 1.75 µM·h
half-life ([2]; human, plasma, iv, 80 mg/m2, t1/2, Day 1 (no onalespib), 80 mg/m^2 paclitaxel IV, DL2, median (range)): 9.18 h
half-life ([2]; human, plasma, iv, 80 mg/m2, t1/2, Day 1 (no onalespib), 80 mg/m^2 paclitaxel IV, DL3, median (range)): 9.06 h
half-life ([2]; human, plasma, iv, 80 mg/m2, t1/2, Day 1 (no onalespib), 80 mg/m^2 paclitaxel IV, DL4, median (range)): 10.6 h
AUC(0-inf) ([2]; human, plasma, iv, AUCinf, Day 8, 80 mg/m^2 paclitaxel IV with onalespib 120 mg/m^2, DL1, geometric mean ± SD): 7.97 ± 2.95 µM·h
AUC(0-inf) ([2]; human, plasma, iv, AUCinf, Day 8, 80 mg/m^2 paclitaxel IV with onalespib 200 mg/m^2, DL3, geometric mean ± SD): 6.47 ± 2.18 µM·h
AUC(0-inf) ([2]; human, plasma, iv, AUCinf, Day 8, 80 mg/m^2 paclitaxel IV with onalespib 260 mg/m^2, DL4, geometric mean ± SD): 8.72 ± 2.54 µM·h
Cmax ([2]; human, plasma, iv, Cmax, Day 8, 80 mg/m^2 paclitaxel IV with onalespib 120 mg/m^2, DL1, geometric mean ± SD): 2.99 ± 3.59 µM
Cmax ([2]; human, plasma, iv, Cmax, Day 8, 80 mg/m^2 paclitaxel IV with onalespib 200 mg/m^2, DL3, geometric mean ± SD): 4.23 ± 2.18 µM
half-life ([2]; human, plasma, iv, t1/2, Day 8, 80 mg/m^2 paclitaxel IV with onalespib 200 mg/m^2, DL3, median (range)): 8.67 h
half-life ([2]; human, plasma, iv, t1/2, Day 8, 80 mg/m^2 paclitaxel IV with onalespib 260 mg/m^2, DL4, median (range)): 10.7 h

CC(C)c1cc(-c2n[nH]c(=O)n2-c2ccc3c(ccn3C)c2)c(O)cc1O [ganetespib]
partial response [3]: 22%
stable disease [3]: 56%

CC(C)c1cc(C(=O)N2Cc3ccc(CN4CCN(C)CC4)cc3C2)c(O)cc1O [onalespib, (2,4-dihydroxy-5-isopropylphenyl)-[5-(4-methylpiperazin-1-ylmethyl)-1,3-dihydroisoindol-2-yl]methanone]
interaction with P-gp [1]: substrate and moderate inhibitor of P-gp
glucuronidation substrate status [4]: substrate for glucuronidation
maximum tolerated dose [5]: 260 mg/m^2
Kd (HSP90): 0.71 nM
water solubility [6]: High water solubility
exposure (AUCinf and Cmax), dose proportionality ([2]; 120 to 260 mg/m^2): approximately dose-proportional
observed clearance (CL), dose dependence [2]: independent of dose
CL [2, 12]: 42.6 ± 4.99 L/h/m^2
Vz [2, 12]: 344 ± 134 L/m^2
CL [2, 13]: 51.1 ± 4.37 L/h/m^2
Vz [2, 13]: 443 ± 23.2 L/m^2
CL [2, 14]: 48.4 ± 29.2 L/h/m^2
Vz [2, 14]: 522 ± 273 L/m^2
CL [2, 15]: 41.6 ± 10.0 L/h/m^2
Vz [2, 15]: 427 ± 102 L/m^2
CL [2, 16]: 47.9 ± 2.03 L/h/m^2
Vz [2, 16]: 730 ± 121 L/m^2
CL [2, 17]: 64.3 ± 21.0 L/h/m^2
Vz [2, 17]: 801 ± 263 L/m^2
CL [2, 18]: 51.4 ± 14.8 L/h/m^2
Vz [2, 18]: 717 ± 282 L/m^2
CL [2, 19]: 45.2 ± 13.4 L/h/m^2
Vz [2, 19]: 598 ± 208 L/m^2
effect of combination with paclitaxel on overall exposure (AUCinf and Cmax) ([2]; cycle 1 day –7 versus day 8): no apparent changes in overall exposure
AUC(0-inf) ([2]; human, plasma, intravenous, AUCinf, range, single agent, cycle 1, day –7, all DLs (120 to 260 mg/m^2)): 4.3 to 22.7 µM·h
half-life ([2]; human, plasma, intravenous, mean t1/2, range across DLs, as a single agent only): 6.04 to 7.32 h
AUC(0-inf) ([2]; human, plasma, iv, 120 mg/m2, AUCinf, Day 7 (no paclitaxel), DL1, onalespib 120 mg/m^2 IV, geometric mean ± SD): 6.72 ± 0.688 µM·h
Cmax ([2]; human, plasma, iv, 120 mg/m2, Cmax, Day 7 (no paclitaxel), DL1, onalespib 120 mg/m^2 IV, geometric mean ± SD): 2.8 ± 0.844 µM
half-life ([2]; human, plasma, iv, 120 mg/m2, t1/2, Day 7 (no paclitaxel), DL1, onalespib 120 mg/m^2 IV, median (range)): 7.23 h
AUC(0-inf) ([2]; human, plasma, iv, 200 mg/m2, AUCinf, Day 7 (no paclitaxel), DL3, onalespib 200 mg/m^2 IV, geometric mean ± SD): 10 ± 4.35 µM·h
Cmax ([2]; human, plasma, iv, 200 mg/m2, Cmax, Day 7 (no paclitaxel), DL3, onalespib 200 mg/m^2 IV, geometric mean ± SD): 3.21 ± 2.56 µM
half-life ([2]; human, plasma, iv, 200 mg/m2, t1/2, Day 7 (no paclitaxel), DL3, onalespib 200 mg/m^2 IV, median (range)): 7.32 h
AUC(0-inf) ([2]; human, plasma, iv, 260 mg/m2, AUCinf, Day 7 (no paclitaxel), DL4, onalespib 260 mg/m^2 IV, geometric mean ± SD): 15.2 ± 3.84 µM·h
Cmax ([2]; human, plasma, iv, 260 mg/m2, Cmax, Day 7 (no paclitaxel), DL4, onalespib 260 mg/m^2 IV, geometric mean ± SD): 5.36 ± 2.8 µM
half-life ([2]; human, plasma, iv, 260 mg/m2, t1/2, Day 7 (no paclitaxel), DL4, onalespib 260 mg/m^2 IV, median (range)): 6.83 h
AUC(0-inf) ([2]; human, plasma, iv, AUCinf, Day 8 (with 80 mg/m^2 paclitaxel), DL1, onalespib 120 mg/m^2 IV, geometric mean ± SD): 6.1 ± 0.244 µM·h
AUC(0-inf) ([2]; human, plasma, iv, AUCinf, Day 8 (with 80 mg/m^2 paclitaxel), DL2, onalespib 150 mg/m^2 IV, geometric mean ± SD): 5.64 ± 2.32 µM·h
AUC(0-inf) ([2]; human, plasma, iv, AUCinf, Day 8 (with 80 mg/m^2 paclitaxel), DL3, onalespib 200 mg/m^2 IV, geometric mean ± SD): 9.46 ± 2.24 µM·h
AUC(0-inf) ([2]; human, plasma, iv, AUCinf, Day 8 (with 80 mg/m^2 paclitaxel), DL4, onalespib 260 mg/m^2 IV, geometric mean ± SD): 14 ± 4.66 µM·h
Cmax ([2]; human, plasma, iv, Cmax, Day 8 (with 80 mg/m^2 paclitaxel), DL1, onalespib 120 mg/m^2 IV, geometric mean ± SD): 2.74 ± 0.676 µM
Cmax ([2]; human, plasma, iv, Cmax, Day 8 (with 80 mg/m^2 paclitaxel), DL2, onalespib 150 mg/m^2 IV, geometric mean ± SD): 2.41 ± 1.03 µM
Cmax ([2]; human, plasma, iv, Cmax, Day 8 (with 80 mg/m^2 paclitaxel), DL3, onalespib 200 mg/m^2 IV, geometric mean ± SD): 4.64 ± 2.64 µM
Cmax ([2]; human, plasma, iv, Cmax, Day 8 (with 80 mg/m^2 paclitaxel), DL4, onalespib 260 mg/m^2 IV, geometric mean ± SD): 5.53 ± 4.5 µM
half-life ([2]; human, plasma, iv, t1/2, Day 8 (with 80 mg/m^2 paclitaxel), DL1, onalespib 120 mg/m^2 IV, median (range)): 10.5 h
half-life ([2]; human, plasma, iv, t1/2, Day 8 (with 80 mg/m^2 paclitaxel), DL2, onalespib 150 mg/m^2 IV, median (range)): 8.55 h
half-life ([2]; human, plasma, iv, t1/2, Day 8 (with 80 mg/m^2 paclitaxel), DL3, onalespib 200 mg/m^2 IV, median (range)): 9.62 h
half-life ([2]; human, plasma, iv, t1/2, Day 8 (with 80 mg/m^2 paclitaxel), DL4, onalespib 260 mg/m^2 IV, median (range)): 9.11 h
MTD of onalespib ([7]; combined with paclitaxel 80 mg/m^2, IV days 1, 8, 15 of 28-day cycle): 260 mg/m^2
RP2D of onalespib ([7]; given with paclitaxel 80 mg/m^2, IV days 1, 8, 15 of 28-day cycle): 260 mg/m^2
